One assay has as its system HylabAKHR. Nature of the assay: Aequorin-based bioluminescent calcium assay in CHO-WTA11 cells. It is filed as cell-based, Hylobius abietis. The note with it: peptide at micromolar concentrations; relative to cognate AKH. The text has this: (§1) We expressed the different insect AKH receptors in Chinese hamster ovary (CHO) WTA11 cells, stably expressing apo-aequorin, a zeocin resistance gene and the promiscuous Gα16 subunit coupling to the phospholipase C and Ca^2+ signaling cascade (Euroscreen, Brussels, Belgium). The AKH from each species elicited a clear dose-dependent response in the bioluminescent calcium assay of its conspecific receptor, with an EC50 value in the low nanomolar range (Figure 3).
(§2) We analyzed the activity of the different AKH receptors using CHO-WTA11 cells, which contain a promiscuous Gα16 subunit that will induce an intracellular Ca^2+-increase upon receptor binding independent of the receptors’ natural signaling cascade (see also [48]). […]
(§3) For transfection of the cells (T75 flasks at 60–80% confluency), we dissolved 5 µg pcDNA3.1-receptor or empty pcDNA3.1 vector in 2.5 mL Opti-MEM® (Gibco) supplemented with 12.5 µL Plus™ Reagent of the Lipofectamine LTX Kit (Invitrogen) in 5 mL polystyrene round-bottom tubes. […] We monitored ligand-induced changes in intracellular Ca^2+ in the cells as described below. […]

The subject of a further assay is AcypiAKHR. The assay is described as above. It is filed as cell-based, Acyrthosiphon pisum. The note with it: peptide at micromolar concentrations; relative to cognate AKH.
Excerpt: as §1, §2, §3

The subject of another assay is TricaAKHR. Described as above. It is filed as cell-based, Tribolium castaneum. The note with it: peptide at micromolar concentrations; relative to cognate AKH.
Excerpt: as §1, §2, §3

Assay [1] deals with seven different insect AKH receptors. Description: Aequorin-based bioluminescent calcium assay in CHO-WTA11 cells, statements for all seven receptors together. It is filed as cell-based. The note with it: peptide at micromolar concentrations; all analysed AKHRs.
Excerpt: as §1, §2, §3

Regarding pQ-TFQYSHGWTNamide [Crz, corazonin], the receptor activation entry in the assay with HylabAKHR, in the assay with AcypiAKHR and with TricaAKHR was “very limited activation” each time. The AKHR activation result in assay [1] is listed as “not able to activate any of the AKHRs that were analyzed to same extent as the endogenous AKHs”.

For pQVTF--SRDWNAamide [ACP], the AKHR activation result in assay [1] is reported as “only very low levels of AKHR activation”.

The values above are taken from publication PMC5855764, “Analysis of Peptide Ligand Specificity of Different Insect Adipokinetic Hormone Receptors” (International Journal of Molecular Sciences, 2018).
